US9302999B2, “Substituted triazoles as herbicides” (E. I. DU PONT DE NEMOURS AND COMPANY, priority 2012, dated 2016)

Legend:
Assay type in all cases: in vivo
[1] = system: canarygrass (Phalaris minor); test: Test D pre-/postemergence: canarygrass
Method in brief: (§1)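 We sprayed chemicals in a surfactant-containing solvent onto silt loam at planting (preemergence) and onto 1- to 4-leaf seedlings (postemergence). Fourteen to 21 days later, each species was rated visually from 0 to 100 relative to controls.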

[2] = system: field violet (Viola arvensis); test: Test D pre-/postemergence: field violet
Method in brief: as §1

[3] = system: speedwell (bird's-eye speedwell, Veronica persica); test: Test D pre-/postemergence: speedwell; settings: Preemergence
Method in brief: as §1

soybean (Glycine max) = test: Test F pre-/postemergence: soybean; settings: Preemergence
Method in brief: (§2)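 Seeds were sown in silt loam soil and sprayed preemergence with test chemical in a non-phytotoxic solvent mixture containing surfactant; postemergence treatments went onto plants 2 to 18 cm tall (1- to 4-leaf stage) grown in peat moss/vermiculite medium. After 14 to 21 days in a greenhouse, injury was rated visually against controls, 0 (no effect) to 100 (complete control).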

[4] = system: velvetleaf (Abutilon theophrasti); test: Test F pre-/postemergence: velvetleaf; settings: Preemergence
Method in brief: as §2

[5] = system: foxtail, giant (giant foxtail, Setaria faberii); test: Test F pre-/postemergence: foxtail, giant; settings: Preemergence
Text: Seeds of plant species selected from corn (Zea mays), soybean (Glycine max), velvetleaf (Abutilon theophrasti), lambsquarters (Chenopodium album), poinsettia, wild (wild poinsettia, Euphorbia heterophylla), pigweed, palmer (palmer pigweed, Amaranthus palmeri), waterhemp (common waterhemp, Amaranthus rudis), surinam grass (Brachiaria decumbens), crabgrass, Brazil (Brazilian crabgrass, Digitaria horizontalis), panicum, fall (fall panicum Panicum dichotomiflorum), crabgrass, large (large crabgrass, Digitaria sanguinalis), foxtail, giant (giant foxtail, Setaria faberii), foxtail, green (green foxtail Setaria viridis), goosegrass (Eleusine indica), ragweed (common ragweed, Ambrosia elatior), barnyardgrass (Echinochloa crus-galli), sandbur (southern sandbur, Cenchrus echinatus), arrowleaf sida (Sida rhombifolia), ryegrass, Italian (Italian ryegrass, Lolium multiflorum), dayflower, VA (Virginia (VA) dayflower, Commelina virginica), field bindweed (Convolvulus arvensis), cocklebur (common cocklebur, Xanthium strumarium), morningglory (Ipomoea coccinea), nightshade (eastern black nightshade, Solanum ptycanthum), kochia (Kochia scoparia), nutsedge, yellow (yellow nutsedge, Cyperus esculentus), johnsongrass (Sorghum halepense), smartweed (ladysthumb smartweed, Polygonum persicaria), and beggarticks (hairy beggarticks, Bidens pilosa), were planted into a silt loam soil and treated preemergence with test chemicals formulated in a non-phytotoxic solvent mixture which included a surfactant. At the same time, plants selected from these crop and weed species and also pigweed (Amaranthus retroflexus), waterhemp_RES1 (ALS/Triazine resistant common waterhemp, Amaranthus rudis) and waterhemp_RES2 (ALS/HPPD resistant common waterhemp, Amaranthus rudis) were planted in pots containing a planting medium comprising spaghnum peat moss, vermiculite, wetting agent and starter nutrients treated with postemergence applications of some of the test chemicals formulated in the same manner. Plants ranged in height from 2 to 18 cm for postemergence treatments (1- to 4-leaf stage).
Treated plants and controls were maintained in a greenhouse for 14 to 21 days, after which time all species were compared to controls and visually evaluated. Plant response ratings, summarized in Table E, are based on a scale of 0 to 100 where 0 is no effect and 100 is complete control. A dash (-) response means no test result.

[6] = Postemergence, 31 g ai/ha, scale 0 to 100 (0 no effect, 100 complete control)
[7] = Postemergence, 62 g ai/ha, scale 0 to 100 (0 no effect, 100 complete control)
[8] = Postemergence, 125 g ai/ha, scale 0 to 100, 0 no effect, 100 complete control
[9] = Postemergence, 16 g ai/ha, scale 0 to 100
[10] = Preemergence, 16 g ai/ha, scale 0 to 100, 0 no effect, 100 complete control
[11] = Preemergence, 31 g ai/ha, scale 0 to 100, 0 no effect, 100 complete control
[12] = Preemergence, 62 g ai/ha, scale 0 to 100
[13] = Preemergence, 125 g ai/ha, scale 0 to 100
[14] = 16 g ai/ha, scale 0 to 100, 0 no effect, 100 complete control
[15] = 31 g ai/ha, scale 0 to 100, 0 no effect, 100 complete control

| SMILES | Plant response rating: Canarygrass [1, 6] | Plant response rating: Canarygrass [1, 7] | Plant response rating: Canarygrass [1, 8] | Plant response rating, Canarygrass [1, 9] | Plant response rating, Canarygrass [1, 10] | Plant response rating, Canarygrass [1, 11] | Plant response rating, Canarygrass [1, 12] | Plant response rating, Canarygrass [1, 13] | Plant response rating: Field Violet [2, 6] | Plant response rating: Field Violet [2, 7] | Plant response rating: Field Violet [2, 8] | Plant response rating, Field Violet [2, 9] | Plant response rating, Field Violet [2, 10] | Plant response rating, Field Violet [2, 11] | Plant response rating, Field Violet [2, 12] | Plant response rating, Field Violet [2, 13] | Plant response rating, Speedwell [3, 14] | Plant response rating, Speedwell [3, 15] | Plant response rating, Speedwell ([3]; 62 g ai/ha, scale 0 to 100) | Plant response rating, Speedwell ([3]; 125 g ai/ha, scale 0 to 100) | other results |
| --- | --- | --- | --- | --- | --- | --- | --- | --- | --- | --- | --- | --- | --- | --- | --- | --- | --- | --- | --- | --- | --- |
| Cc1nn(-c2ccc(C(F)(F)F)c(F)c2)nc1Oc1ccnc(C(F)(F)F)c1 [Compound 148] | 30 | 20 | 70 | 10 | 0 | 50 | 60 | 100 | 95 | 95 | 95 | 90 | 90 | 100 | 95 | 100 | 5 | 95 | 50 | 100 | Plant response rating, Soybean (soybean (Glycine max); [14]): 0; Plant response rating, Soybean (soybean (Glycine max); [15]): 0; Plant response rating, Soybean (soybean (Glycine max); 125 g ai/ha, scale 0 to 100): 20; Plant response rating, Soybean (soybean (Glycine max); 250 g ai/ha, scale 0 to 100): 40; Plant response rating, Velvetleaf [4, 14]: 0; Plant response rating, Velvetleaf [4, 15]: 0; Plant response rating, Velvetleaf ([4]; 125 g ai/ha, scale 0 to 100): 25; Plant response rating, Velvetleaf ([4]; 250 g ai/ha, scale 0 to 100): 65; Plant response rating, Foxtail, Giant [5, 14]: 25; Plant response rating, Foxtail, Giant [5, 15]: 95; Plant response rating, Foxtail, Giant ([5]; 62 g ai/ha, scale 0 to 100): 100; Plant response rating, Foxtail, Giant ([5]; 125 g ai/ha, scale 0 to 100): 100; Plant response rating, Foxtail, Giant ([5]; 250 g ai/ha, scale 0 to 100): 100 |
| CCc1nn(-c2ccc(C(F)(F)F)cc2)nc1Cc1ccnc(C(F)(F)F)c1 [Compound 155] | 70 | 70 | 85 | 20 | 10 | 70 | 100 | 100 | 100 | 100 | 95 | 95 | 90 | 95 | 95 | 100 | 100 | 100 | 100 | 100 | Plant response rating, Soybean (soybean (Glycine max); 125 g ai/ha, scale 0 to 100): 30; Plant response rating, Soybean (soybean (Glycine max); 250 g ai/ha, scale 0 to 100): 30; Plant response rating, Velvetleaf ([4]; 125 g ai/ha, scale 0 to 100): 98; Plant response rating, Velvetleaf ([4]; 250 g ai/ha, scale 0 to 100): 98; Plant response rating, Foxtail, Giant ([5]; 62 g ai/ha, scale 0 to 100): 98; Plant response rating, Foxtail, Giant ([5]; 125 g ai/ha, scale 0 to 100): 100; Plant response rating, Foxtail, Giant ([5]; 250 g ai/ha, scale 0 to 100): 100 |
